Our source for the IC50 values is ChEMBL document CHEMBL1123292, “Synthesis and antimitogenic activities of four analogues of cyclosporin A modified in the 1-position” (J Med Chem, 1986).

Assay [1] can be described thus: inhibitory concentration against Con A stimulated thymocytes. The assay is classed as functional.
Assay [2] is described as follows: Inhibitory concentration against Con A stimulated thymocytes. The assay is classed as functional.

The term IC50 denotes the concentration at which inhibition is half-maximal. A lower IC50 goes with greater potency. Regarding `CC[C@@H]1NC(=O)[C@H]([C@@H](C)O)N(C)C(=O)[C@H](C(C)C)N(C)C(=O)[C@H](CC(C)C)N(C)C(=O)[C@H](CC(C)C)N(C)C(=O)[C@@H](C)NC(=O)[C@H](C)NC(=O)[C@H](CC(C)C)N(C)C(=O)[C@H](C(C)C)NC(=O)[C@H](CC(C)C)N(C)C(=O)CN(C)C1=O`, in assay [1], the half-maximal inhibitory concentration (IC50) worked out at 8 µM. Compound `CC[C@@H]1NC(=O)[C@H](CC)N(C)C(=O)[C@H](C(C)C)N(C)C(=O)[C@H](CC(C)C)N(C)C(=O)[C@H](CC(C)C)N(C)C(=O)[C@@H](C)NC(=O)[C@H](C)NC(=O)[C@H](CC(C)C)N(C)C(=O)[C@H](C(C)C)NC(=O)[C@H](CC(C)C)N(C)C(=O)CN(C)C1=O` showed an IC50 in assay [2] of 15 µM. On the same count and under the same terms, next, `CCCCC(C)[C@@H](O)[C@H]1C(=O)N[C@@H](CC)C(=O)N(C)CC(=O)N(C)[C@@H](CC(C)C)C(=O)N[C@@H](C(C)C)C(=O)N(C)[C@@H](CC(C)C)C(=O)N[C@@H](C)C(=O)N[C@H](C)C(=O)N(C)[C@@H](CC(C)C)C(=O)N(C)[C@@H](CC(C)C)C(=O)N(C)[C@@H](C(C)C)C(=O)N1C` (some centres undefined): 0.01 µM; `CC[C@@H]1NC(=O)[C@H]([C@H](O)C(C)C)N(C)C(=O)[C@H](C(C)C)N(C)C(=O)[C@H](CC(C)C)N(C)C(=O)[C@H](CC(C)C)N(C)C(=O)[C@@H](C)NC(=O)[C@H](C)NC(=O)[C@H](CC(C)C)N(C)C(=O)[C@H](C(C)C)NC(=O)[C@H](CC(C)C)N(C)C(=O)CN(C)C1=O`: 0.6 µM.
